Experimental data reported in paper PMC11683478, “Bioprospecting of culturable marine biofilm bacteria for novel antimicrobial peptides” (iMeta, 2024).
Where no end group is shown, it is not given here.

Experiments:
[1] = system: Acinetobacter baumannii ATCC 19606; assay: Antibacterial screen at 200 μg/mL (cell density vs control); type: cell-based; conditions: peptide 200 μg/mL, CAMHB, 5 × 10^5 CFU/mL, 37°C, 12 h, OD600; control (no AMP) = 1; three biological replicates
Procedure: (§1) Eight bacterial strains were utilized in the antibacterial experiment. S. aureus ATCC 12600, B. subtilis ATCC 23857, E. coli ATCC 11775, and A. baumannii ATCC 19606 were purchased from Shanghai Beinuo Biology. M. luteus ATCC 4698 and S. bongori ATCC43975 were purchased from Shanghai Beisi Biotechnology. V. owensii ems001 and V. alginolyticus xv22 from the intestines of diseased shrimps were isolated in our laboratory. All strains were cultured in the cation‐adjusted Mueller‐Hinton broth (CAMHB) at 37°C to the logarithmic growth phase (OD600 = 0.5). Then, bacteria were gradient‐diluted using fresh CAMHB to a bacterial density of 5 × 10^5 CFU/mL. Antibacterial experiments were performed in a 96‐well plate with 200 μg/mL final peptide concentration. Four experimental groups were set up, including a blank control (200 μL CAMHB), a negative control (180 μL CAMHB plus 20 μL peptide), a positive control (180 μL bacterial culture plus 20 μL ultrapure water), and an experimental group (180 μL bacterial culture plus 20 μL peptide). Three biological replicates were conducted for each group, and OD600 values were measured after incubation at 37°C for 12 h. Every observed value was removed from the blank control group value. The value of the experimental group was then subtracted from the value of the negative control group therefore eradicating the effect of the peptide on the OD measurement. Student's t‐test allowed the estimation of a notable variation between the experimental and positive groups using a p‐value of 0.05 as the limit. […] The MIC of a peptide against a bacterium was determined as the minimum peptide concentration at which there was no visible bacterial growth.

[2] = system: Bacillus subtilis ATCC 23857; assay: as above; type: cell-based; conditions: peptide 200 μg/mL, CAMHB, 5 × 10^5 CFU/mL, 37°C, 12 h, OD600; control (no AMP) = 1; three biological replicates
Procedure: as §1

[3] = system: Escherichia coli ATCC 11775; assay: as above; type: cell-based; conditions: peptide 200 μg/mL, CAMHB, 5 × 10^5 CFU/mL, 37°C, 12 h, OD600; control (no AMP) = 1; three biological replicates
Procedure: as §1

[4] = system: Micrococcus luteus ATCC 4698; assay: as above; type: cell-based; conditions: peptide 200 μg/mL, CAMHB, 5 × 10^5 CFU/mL, 37°C, 12 h, OD600; control (no AMP) = 1; three biological replicates
Procedure: as §1

[5] = system: Salmonella bongori ATCC 43975; assay: as above; type: cell-based; conditions: peptide 200 μg/mL, CAMHB, 5 × 10^5 CFU/mL, 37°C, 12 h, OD600; control (no AMP) = 1; three biological replicates
Procedure: as §1

[6] = system: Staphylococcus aureus ATCC 12600; assay: as above; type: cell-based; conditions: peptide 200 μg/mL, CAMHB, 5 × 10^5 CFU/mL, 37°C, 12 h, OD600; control (no AMP) = 1; three biological replicates
Procedure: as §1

[7] = system: Vibrio alginolyticus xv22; assay: as above; type: cell-based; conditions: peptide 200 μg/mL, CAMHB, 5 × 10^5 CFU/mL, 37°C, 12 h, OD600; control (no AMP) = 1; three biological replicates
Procedure: as §1

[8] = system: Vibrio owensii ems001; assay: as above; type: cell-based; conditions: peptide 200 μg/mL, CAMHB, 5 × 10^5 CFU/mL, 37°C, 12 h, OD600; control (no AMP) = 1; three biological replicates
Procedure: as §1

[9] = system: sheep red blood cells; conditions: red cells of sheep, 1 h
Procedure: Freshly collected sheep blood was centrifuged at 3000 rpm for 10 min, and the supernatant was removed. The pellet was washed and resuspended with normal saline water to produce a 2% blood cell solution. Then, 400 μL of peptide solution was added to 100 μL of 2% blood cell solution to achieve final peptide concentrations of 8, 16, 32, 64, and 128 μg/mL. Normal saline water and Triton X‐100 normal saline solution (2%) were used as negative and positive controls, respectively. The samples were incubated in a water bath at 37°C for 1 h, followed by centrifugation at 3000 rpm for 10 min. Then, 200 μL of the supernatant was transferred to a 96‐well plate, and OD values were measured at a wavelength of 545 nm. The hemolysis rate of each sample was calculated using the following formula: Hemolysis ratio=OD545(experimental)−OD545(negative control)/OD545(positive control)−OD545(negative control)×100%.

Row | Sequence | cell density relative to control, A. baumannii ATCC 19606 [1] | cell density relative to control, B. subtilis ATCC 23857 [2] | cell density relative to control, E. coli ATCC 11775 [3] | cell density relative to control, M. luteus ATCC 4698 [4] | cell density relative to control, S. bongori ATCC 43975 [5] | cell density relative to control, S. aureus ATCC 12600 [6] | cell density relative to control, V. alginolyticus xv22 [7] | cell density relative to control, V. owensii ems001 [8] | Hemolysis ratio (%) at 8μg/mL [9] [%] | Hemolysis ratio (%) at 16μg/mL [9] [%] | Hemolysis ratio (%) at 32μg/mL [9] [%] | Hemolysis ratio (%) at 64μg/mL [9] [%] | Hemolysis ratio (%) at 128μg/mL [9] [%]
1 | MAWISTRIACCCSTRLRRRIRTCSTSFCR [Cand-218, chemically synthesized candidate AMP predicted from marine biofilm bacteria] | 0.029 | 0.004 | 0.021 | 0.052 | 0.938 | 0 | 0.049 | 0.001 |  |  |  |  | 
2 | MCALKWFCKSLIRALNKAT [Cand-68, chemically synthesized candidate AMP predicted from marine biofilm bacteria] | 0 | 0 | 0 | 0.001 | 0.024 | 0 | 0.012 | 0 |  |  |  |  | 
3 | MCCVGRGVSFLRTRKCFIKS [Cand-161, chemically synthesized candidate AMP predicted from marine biofilm bacteria] | 0.543 | 0 | 0 | 0.788 | 0.12 | 0.001 | 0 | 0 |  |  |  |  | 
4 | MCRFKCKVRTTITRPVCCWLIFM [Cand-168, chemically synthesized candidate AMP predicted from marine biofilm bacteria] | 1 | 0 | 0.553 | 1 | 0.482 | 1 | 0.418 | 0 |  |  |  |  | 
5 | MCRWWPDWWHHRWWHCRGCCRFCRG [Cand-111, chemically synthesized candidate AMP predicted from marine biofilm bacteria] | 1 | 1 | 0.669 | 1 | 0.794 | 0.202 | 0.477 | 0.357 |  |  |  |  | 
6 | MCTIRTCRRSRPHHCSTHC [Cand-101, chemically synthesized candidate AMP predicted from marine biofilm bacteria] | 0.879 | 0 | 0.967 | 0.91 | 0.855 | 0.01 | 0 | 1 |  |  |  |  | 
7 | MCTRSCRPNLVKC [Cand-47, chemically synthesized candidate AMP predicted from marine biofilm bacteria] | 0.895 | 1 | 1 | 1 | 0.835 | 1 | 1 | 1 |  |  |  |  | 
8 | MCTSKKKVWRCVAPS [Cand-33, chemically synthesized candidate AMP predicted from marine biofilm bacteria] | 0.813 | 0.601 | 0.96 | 1 | 1 | 0.874 | 0.879 | 1 |  |  |  |  | 
9 | MFKFFCCIFYMCRIKTH [Cand-18, chemically synthesized candidate AMP predicted from marine biofilm bacteria] | 0.014 | 0 | 0.004 | 0 | 0.031 | 0 | 0 | 0.007 |  |  |  |  | 
10 | MFSKLVKVLLKALCHVFMKCTFW [Cand-61, chemically synthesized candidate AMP predicted from marine biofilm bacteria] | 0.884 | 0 | 1 | 1 | 0.633 | 0 | 1 | 0.001 |  |  |  |  | 
11 | MGAVCRMGSLPCLIPRGAIRLG [Cand-198, chemically synthesized candidate AMP predicted from marine biofilm bacteria] | 0.765 | 1 | 0.844 | 1 | 0.827 | 0.817 | 0.891 | 0.904 |  |  |  |  | 
12 | MGPHWRGPRWGRVGCWNL [Cand-154, chemically synthesized candidate AMP predicted from marine biofilm bacteria] | 1 | 0 | 0.622 | 0.814 | 0.544 | 0.038 | 0.077 | 0.004 |  |  |  |  | 
13 | MGRISCMWSSSYKCRFNCYF [Cand-20, chemically synthesized candidate AMP predicted from marine biofilm bacteria] | 0.937 | 1 | 1 | 1 | 1 | 0.809 | 0.635 | 0.818 |  |  |  |  | 
14 | MLTWLKKLQPYLISMMR [Cand-44] |  |  |  |  |  |  |  |  | 3.540 | 1.775 | 3.660 | 5.713 | 19.067
15 | MRPKKWLKKPKPRPKKWPTK [Cand-210] |  |  |  |  |  |  |  |  | 0.520 | 0.079 | 0.689 | 1.792 | 
16 | MSPCLKGVIRSAVKSLHR [Cand-53] |  |  |  |  |  |  |  |  | 2.990 | 2.497 | 3.703 | 3.585 | 
17 | MSPIRAWRRLRSC [Cand-144] |  |  |  |  |  |  |  |  | 1.328 | 1.615 | 1.536 | 3.230 | 10.013
18 | MWIRLTKRLRKSRSNR [Cand-214] |  |  |  |  |  |  |  |  | 1.812 | 2.604 | 3.258 | 3.738 | 
19 | MWPLSKLWPSCFRKTT [Cand-5] |  |  |  |  |  |  |  |  | 2.350 | 1.575 | 0.874 | 7.118 | 
